Experiment [1] relates to HTLV-1, CMV, PTHrP, IgH, RAS, RSV, and SIV promoters. The experiment in a line: CAT assays with other polymerase II promoters. It is filed as cell-based. The note with it: seven promoters upstream of CAT, cotransfected with Tat peptides. The protocol:
(§1) It was of interest to determine if the peptides inhibited transcription from other polymerase II promoters. We have tested seven promoters including HTLV-1, CMV, PTHrP, IgH, RAS, RSV, and SIV. Each promoter, cloned upstream of the CAT reporter gene, was cotransfected individually with the Tat peptides under identical conditions. Electroporation was as in Example 1 but reporter genes used were HTLV-1 LTR (pU3R CAT, 5 μg) or pCMV-CAT (5 μg), containing the CMV promoter. […] For example, basal transcription of the HTLV-1 promoter decreased from 19 to 15.6 and 16.4 percent using 1 and 5,μg of the peptide analog 41/44. Similarly, Tat peptide analog 41/44 decreased Tax1 (1 μg) transactivated transcription approximately two-fold (49.2 to 22.8 percent). In other control experiments, transcription from the CMV promoter was decreased from 17.8 to 9.04 and 6.7 percent in the presence of 1 or 5 μg of Tat peptide analog 41/44.

For experiment [2], the system named is HIV virus replication in U1 cells. The experiment is described as follows: Tat-induced virus production in latently infected U1 cells, p24 antigen capture assay. It is filed as cell-based, HIV-1. The note with it: Tat protein 2.5 μg. The protocol: (§2) Cells were electroporated as described previously (Kashanchi F, et al. (1992), Nucleic Acids Res, 20:4673-4674). CEM CD4^+ lymphocytes (12D7) (as well as U1 and HeLa cells described in subsequent examples) were kept at a density of 0.5 to 0.8×10^6 cells/ml with media added daily. Typically, 5×10^6 cells were electroporated with purified peptides, Tat protein and/or 5 μg of a reporter plasmid. Synthetic Tat peptides were purified by HPLC to 95 percent purity (Peptide Technologies Corporation, Gaithersburg, Md.). All peptides were analyzed for purity on a 4-20 percent gradient SDS/PAGE followed by silver staining. Recombinant Tat protein was purified by reverse phase HPLC and tested for functional activity in an in vitro transcription assay and in vivo electroporation into CEM cells (Kashanchi F, et al. (1992), Nucleic Acids Res, 20:4673-4674; Bohan Calif., et al. (1992) Gene Expr, 2:391-407). Tat peptide, Tat protein, and the reporter HIV LTR-CAT were mixed with cells and electroporated using a cell porater apparatus (Gibco/BRL, Gaithersburg, Md.). Cell mixtures were electroporated at 800 μF, 230 volts, in RPMI 1640 media without fetal calf serum. Following electroporation, cells were plated in 10 ml of complete media and samples collected 48 hours later for either CAT assay, p24 Gag antigen capture assay or northern blot analysis. […]

The test system of another experiment is CMV promoter. The experiment is described as follows: CAT assay with pCMV-CAT reporter. It is filed as cell-based. The note with it: decreased from 17.8. The protocol: as §2
A further experiment concerns HIV-1 viral mRNA. The experiment in a line: Northern blot of U1 cells, HIV-1 viral mRNA. It is filed as cell-based. The note with it: U1 cells treated with Tat and peptide, 48 hrs. The protocol: (§3) For northern blot analysis, U1 or HLM1 (Tat HIV proviral clone, Sadaie M R, et al. (1994), Virology, 202:513-518) cells were transfected with either Tat protein, or Tat protein in combination with peptides and collected 48 hrs later. Total RNA was extracted using the Trizol reagent (Gibco/BRL). RNA concentration was measured and equivalent amounts of RNA (5 μg) were loaded on a formaldehyde-agarose gel. The RNA was blotted onto nitrocellulose and hybridized with a randomly primed ^32P-labelled HIV-1 proviral genome BH10 (Lofstrand, Inc.), histone H2b, β-Actin or GAPDH probe (Oncor Science, Inc.). Blots were washed, exposed and quantitated using a PhosphorImager (Molecular Dynamics) […].
(§4) Cellular RNAs including actin, histone H2b, and GAPDH, were monitored in cells treated with Tat and peptide analogs. […] In contrast, no change in the expression of the cellular GAPDH gene was observed.

The next experiment concerns cellular GAPDH gene. The experiment is described as follows: Northern blot of U1 cells, cellular RNA. It is filed as cell-based. The note with it: U1 cells treated with Tat and peptide. The protocol:
as §3, §4

In experiment [3] the test system is Tat transactivation of the HIV-1 promoter. The experiment in a line: Transfection and CAT assay: Tat transactivation of HIV-1 LTR-CAT reporter in electroporated CEM lymphocytes. It is filed as cell-based. The note with it: for Tat transactivation (CAT) in presence of peptide: suppression from 95.7, Tat protein 1 μg, peptide 5 μg, HIV-1 LTR-CAT 5 μg, CEM. The protocol:
Initial studies focused on the analysis of a series of Tat peptide analogs, containing various amino acid substitutions, for their ability to inhibit Tat transactivation of the HIV-1 promoter. CEM lymphocytes, grown to early- to mid-log phase, were electroporated with the Tat protein (1 μg), Tat core peptide 36-50 (5 μg) and the HIV-1 LTR-CAT reporter (5 μg).
(§5) Cells were electroporated as described previously (Kashanchi F, et al. (1992), Nucleic Acids Res, 20:4673-4674). CEM CD4^+ lymphocytes (12D7) (as well as U1 and HeLa cells described in subsequent examples) were kept at a density of 0.5 to 0.8×10^6 cells/ml with media added daily. Typically, 5×10^6 cells were electroporated with purified peptides, Tat protein and/or 5 μg of a reporter plasmid. Synthetic Tat peptides were purified by HPLC to 95 percent purity (Peptide Technologies Corporation, Gaithersburg, Md.). All peptides were analyzed for purity on a 4-20 percent gradient SDS/PAGE followed by silver staining. Recombinant Tat protein was purified by reverse phase HPLC and tested for functional activity in an in vitro transcription assay and in vivo electroporation into CEM cells (Kashanchi F, et al. (1992), Nucleic Acids Res, 20:4673-4674; Bohan Calif., et al. (1992) Gene Expr, 2:391-407). Tat peptide, Tat protein, and the reporter HIV LTR-CAT were mixed with cells and electroporated using a cell porater apparatus (Gibco/BRL, Gaithersburg, Md.). Cell mixtures were electroporated at 800 μF, 230 volts, in RPMI 1640 media without fetal calf serum. Following electroporation, cells were plated in 10 ml of complete media and samples collected 48 hours later for either CAT assay, p24 Gag antigen capture assay or northern blot analysis. Samples receiving rTNF-α (R & D System, Minneapolis, MN) after electroporation were collected 48 hours post-treatment for p24 Gag antigen capture assay (ABI, Bethesda, Md.).

Experiment [4] relates to TBP/Tat-activated transcription. The experiment in a line: Gal4-Tat / CMV-TBP activated minimal HIV-1 promoter CAT assay in CEM cells. The experiment is classed as cell-based. The note with it: CEM T-cells, Gal4-TATA+/TAR- reporter. The protocol: It was of interest to determine if the Tat peptide analog targeted the interaction of Tat with TBP in vivo. For these experiments, we used a minimal HIV-1 promoter (−31 to +21) with Gal4 binding sites located upstream of the promoter. CEM cells were transfected with combinations of Gal4-TATA^+/TAR^− reporter plasmid, Gal4-Tat and a CMV-TBP expression plasmid. Southgate CD, et al. (1991), Genes Dev, 5:2496-2507; Horikoshi N, et al. (1995), Mol Cell Biol, 15:227-234. Peptides were added at the time of electroporation. Following electroporation, cells were plated in complete media, harvested at 48 hours and CAT assays performed. The Gal4-TAT^+/TAR^− plasmid contains six Gal4 binding sites, followed by the HIV sequence from −31 to […]. This construct contains no Sp1 sites or a TAR element.
The ability of Gal4-Tat to activate this promoter is dependent upon the presence of exogenously added TBP. […] Xhou Q, et al. (1995), EMBO J, 14:321-328; Huang L M, et al. (1994), EMBO, 13:2886-2896. We next examined if the peptides were capable of downregulating the TBP/Tat-activated transcription by electroporating CEM T-cells with either wild type or peptide 41/44.

In the next experiment the test system is HTLV-1 promoter. The experiment in a line: CAT assay with HTLV-1 LTR (pU3R CAT) reporter, basal and Tax1 transactivated. The experiment is classed as cell-based. As to conditions: for basal transcription of the HTLV-1 promoter: decreased from 19. The protocol: as §5, §1
The test system of experiment [5] is HIV-1 virus replication in U1/U937 co-cultivation. The experiment is described as follows: Co-cultivation of transfected U1 cells with U937 monocyte cell line. It is filed as cell-based. As to conditions: seven days of co-cultivation U1:U937 1:5; peptide 2.5 μg with Tat protein. The text has this:
It was of interest to determine whether the level of virus particles produced in the presence of Tat peptide analog 41/44 was sufficient to initiate a second round of virus replication. This is an important point to consider when designing specific inhibitors for HIV, since detection of p24 or reverse transcriptase in particles is not necessarily an indication of infectious particles. Dimitrov and Martin, Nature, 375:194-195 (1994). To address this question, we utilized co-cultivation assays in which the induced Ul cells were co-cultivated with the parental U937 monocyte cell line.
Transfected U1 cells (5×10^6) were co-cultivated with the U937 cells 48 hrs after transfection. The co-cultivation assay was initially tested using either a 1:1, 1:5, or 1:25 ratio of infected to uninfected cells. A 1:5 co-cultivation was determined to be the optimal ratio in obtaining the highest viral production within a 2 week period. Cells were co-cultivated in a total of 4 mls for a period of 2 weeks. After the fist week, 2 mls of media cells was removed and 2 mls of fresh media added. Both U937 and CEM cells were seeded at a density of 0.5×10^6 cells per culture dish prior to the co-cultivation experiment.
Initially, cells were electroporated with either wild type (2.5 μg) or peptide analog 41/44 (2.5 μg), along with Tat protein. […]

Take “V-C-F-T-T-A-A-L-A-I-S-Y-G-R-K (SEQ ID NO:7) (VCFTTAALSISYGRK) [Tat peptide analog 41/44]”: the “inhibition of transcription from other polymerase II promoters” value in experiment [1] is recorded as “minimal inhibition”. In addition, the “inhibition of virus replication in U1 cells” value in experiment [2] (comparable experiment with 36-72 peptides) is “approximately 75%”. Further, in experiment [2] (peptide 5 μg, in comparison to wild type peptide 5 μg, p24, 48 hours), the “inhibition of Tat-induced virus production in U1 cells” value is on record as “approximately 85%”. Also, the “transcription from the CMV promoter” value is 9.04% in the experiment with CMV promoter (1 μg peptide) and 6.7% in the experiment on CMV promoter (5 μg peptide). Also, the “level of HIV-1 viral mRNA” value in the experiment on HIV-1 viral mRNA is on record as “a decrease in the level of HIV-1 viral mRNA was detected”. The “expression of the cellular GAPDH gene” value with cellular GAPDH gene is given as “no change”. The “Tat transactivation (CAT) in presence of peptide” value (“Tat transactivation (CAT)” below) in experiment [3] worked out at 1.1%. In addition, in experiment [4], the “inhibition of TBP/Tat-activated transcription” value is “inhibited TBP/Tat-activated transcription”. Moreover, the entries for the “basal transcription of the HTLV-1 promoter” value in the experiment on HTLV-1 promoter (1 μg peptide) and with HTLV-1 promoter (5 μg peptide) were 15.6% and 16.4%, respectively. Also, in the experiment on HTLV-1 promoter (Tax1 1 μg, 49.2 to 22.8 percent), the “decrease of Tax1 transactivated transcription” value is given as “approximately two-fold”. In the experiment on HTLV-1 promoter (Tax1 1 μg, decreased from 49.2), this substance gave a Tax1 transactivated transcription of 22.8%. In addition, in experiment [5], the “decrease of virus production in co-cultivation” value was 85%.
“V-C-F-T-T-A-A-L-G-I-S-A-G-R-K (SEQ ID NO:9) (VCFTTAALGISAGRK) [Tat 36-50 (41/47)]”: the “Tat transactivation (CAT)” value in experiment [3] is reported as 12%.
Consider “V-C-F-T-T-K-A-L-G-I-S-Y-G-R-K (SEQ ID NO:2) (VCFTTKALGISYGRK) [Tat 36-50, wild type Tat core peptide, amino acids 36-50, reference compound]”, for which, in [3] (peptide included in the transfection with Tat protein), the “drop in transcription activity” value was “no apparent drop in transcription activity”. Besides, the “decrease of virus production in co-cultivation” value in [5] was “did not inhibit HIV virus replication”.
Consider “V-C-F-T-T-A-A-L-G-I-A-Y-G-R-K (SEQ ID NO:8) (VCFTTAALGIAYGRK) [peptide 41/46]”, for which the “Tat transactivation (CAT)” value in [3] came out at 5.5%.

For the origin of these results see patent US6686333B1, “Inhibition of HIV replication using soluble Tat peptide analogs” (priority 1996, dated 2004).
